For experiment [1], the system named is T cells within the PBMC preparation. In words: Effect of PDE4 inhibitors on T-cell proliferation (3H-thymidine incorporation, anti-CD3 stimulated PBMC). Format: cell-based. The conditions noted are these: Homo sapiens, 120 h, monoclonal antibody to CD3, 5 days, read-out: T-cell prol. IC50. The protocol: Peripheral blood mononuclear cells (PBMC) were isolated from the blood of healthy donors by the Lymphoprep gradient method. 200000 PBMC/well were cultured in RPMI1640 culture medium containing 5% heat inactivated human serum (AB pool) for 5 days at 37° C. and 10% CO2 in 96 well flat bottom microtiter plates. The T cells within the PBMC preparation were selectively stimulated with an monoclonal antibody to CD3. Cultures were set up as triplicates including a control group receiving no treatment. PDE4 inhibitors were dissolved in DMSO at 10^−2 M and diluted in culture medium. Control cultures were treated with DMSO equivalent to the inhibitor concentration. 18 hrs before the end of the assay, ^3H-thymidine was added to the cultures. The incorporation of radioactivity into the cells was then measured in a beta-counter.
The data of at least three independent experiments were calculated as percent inhibition of the control (mean ±SEM) without inhibitor.

Another experiment concerns IL-2. In words: IL-2 production in PBMC (ELISA). The conditions noted are these: Homo sapiens, activator mab anti-CD3, 24 h, read-out: IL2 T-cell IC50. It counts as cell-based. As to the method:
(§1) Peripheral blood mononuclear cells (PBMC) were isolated from the blood of healthy donors by the Lymphoprep gradient method. 200000 PBMC/well were cultured in RPMI1640 culture medium containing 5% heat inactivated human serum ([…]). at 37° C. and 10% CO2 in 96 well flat bottom microtiter plates. Cultures were set up as triplicates including a control group. Solutions of PDE4 inhibitors were prepared in DMSO at 10^−2 M and diluted in culture medium. Control cultures were treated with concentrations of DMSO equivalent to the inhibitor concentrations.
(§2) The culture supernatants of three independent experiments were pooled and cytokine activity in the supernatant was measured with commercially available ELISA test kits.
(§3) The data were calculated as percent inhibition/stimulation of the control without the compound and the IC50 value or EC50 value in case of stimulation was determined thereof.
For orientation: An ELISA detects its analyte on a solid surface through an enzyme-linked reagent.

A further experiment has as its system IFN-γ. In words: IFN-γ production in PBMC (ELISA). It counts as cell-based. The conditions noted are these: Homo sapiens, activator mab anti-CD3, 48 h, read-out: IFN-γ T-cell IC50. The protocol: as §1, §2, §3
The next experiment has as its system TNF-α. In words: TNF-α production in PBMC (ELISA). The conditions noted are these: Homo sapiens, activator LPS, 48 h, read-out: TNF-α macrophage IC50. It counts as cell-based. As to the method: as §1, §2, §3
Another experiment relates to IL-10. In words: IL-10 production in PBMC (ELISA). Format: cell-based, human. The conditions noted are these: activator LPS, 48 h, stimulation; for EC50: Homo sapiens, read-out: IL10 macrophage EC50. As to the method:
as §1, §2, §3

The test system of another experiment is IL-12. Briefly: IL-12 production in PBMC (ELISA). Format: cell-based. The conditions noted are these: Homo sapiens, activator SAC + IFNγ, 48 h, read-out: IL12 macrophage IC50. As to the method:
as §1, §2, §3

The values below come from patent US20050070529A1, “Use of type 4 phosphodiesterase inhibitors in myocardial diseases” (Merk Pantent GmbH, priority 2001, published 2005).

A value given as a limit tells only on which side of the number the result lay.

By IC50 is commonly meant the point on the concentration scale where inhibition reaches its midpoint. Usually EC50 stands for the concentration needed to bring the measured effect to its halfway point. Regarding `CCOC(=O)Nc1ccc(C(=O)N2CCCC(c3ccc(OC)c(OCC)c3)=N2)cc1` [EMD 125059], the IC50 in experiment [1] came to 40 nM; with IL-2 it was 60 nM; in the experiment on IFN-γ it was 8 nM; with TNF-α it was 30 nM. Moreover, the concentration giving a half-maximal response (EC50) in the experiment on IL-10 came to 8 nM.

Regarding `CCOc1cc(C2=NN(C(=O)c3ccc(NC(=O)c4ccc(OC)cc4)cc3)CCC2)ccc1OC` [EMD 219901], the 50% inhibitory concentration (IC50) in experiment [1] came to 7 nM; in the experiment with IL-2 it was 3 nM; in the experiment with IFN-γ, 5 nM; in the experiment on TNF-α it was 2 nM. The half-maximal effective concentration (EC50) in the experiment with IL-10 turned out to be 1 nM.

Take `CCOC(=O)Nc1ccc(CN2N=C(c3ccc(OC)c(OCC)c3)CCC2=O)cc1` [EMD 94360]: the half-maximal inhibitory concentration (IC50) was found to be 20 nM in experiment [1]; 300 nM with IL-2; 50 nM with IFN-γ; 30 nM with TNF-α; 6 nM in the experiment on IL-12. Moreover, the EC50 in the experiment with IL-10 stood at 1 nM.

On to `COc1ccc(C2CNC(=O)C2)cc1OC1CCCC1` (stereo not drawn) [Rolipram, reference compound], for which the concentration for half-maximal inhibition (IC50) was 300 nM in experiment [1]; 700 nM in the experiment with IL-2; 1000 nM with IFN-γ; 600 nM in the experiment with TNF-α; over 100 nM in the experiment on IL-12. The EC50 in the experiment with IL-10 came to 50 nM.

As to `CCOc1cc(C2=NN(C(=O)c3ccc(NC(=O)c4cccnc4)cc3)CCC2)ccc1OC` [EMD 125025], the IC50 in experiment [1] turned out to be 6 nM; in the experiment on IL-2, 2 nM; in the experiment with IFN-γ, 7 nM; in the experiment with TNF-α, 3 nM. In the experiment with IL-10, the “IL10 macrophage EC50” value is listed as “no effect”.

Regarding `CCOc1cc(C2=NN(Cc3ccc(NC(=O)c4cccnc4)cc3)C(=O)SC2)ccc1OC` [EMD 95832], the IC50 in experiment [1] is 50 nM; in the experiment on IL-2, 200 nM; in the experiment with IFN-γ, 10 nM; in the experiment with TNF-α, 9 nM; in the experiment on IL-12 it was 0.5 nM. Moreover, the EC50 in the experiment on IL-10 turned out to be 20 nM.
